Source: patent US20100273872A1, “USE OF 4-OXOBUTANOIC ACID DERIVATIVES IN THE TREATMENT OF PATHOLOGIES ASSOCIATED WITH IMMUNOLOGICAL DISORDERS” (priority 2007, published 2010)
Marks after values point to notes of the source that are not given here.

Test system: humoral immunity in rats (splenocytes producing anti-sheep erythrocyte antibodies)
Assay: Direct haemolytic plaque (plaque-forming cells, PFC) test after immunisation with sheep erythrocytes
Type: in vivo, male Wistar rats
Settings: rat; for % inhibition: haemolytic plaques (PFC)
Description: The immunosuppressive activity was evaluated by studying the humoral immunity in rats through the quantification of direct haemolytic plaques (“plaque-forming cells”—PFC) after immunisation with sheep erythrocytes.
This technique consists in stimulating the immune system with an anti-genic agent, the sheep erythrocytes, and in evaluating the effect of a substance on the immune response. This immune response is evaluated by measuring the proportion of splenocytes that produce anti-sheep erythrocyte antibodies in the presence of a complement (Jerne N. K., 1974).
The effect of the compounds, in suspension in methylcellulose hydrogel (Sigma ref: M0512), on the immune system was evaluated in male Wistar rats after oral administration for 5 and 7 days (5 days before sensitisation and 2 days after). The administration volume was 10 ml/kg.
10 rats were used in each group, each group corresponding to a dose of a compound, plus a control group (blank) and a positive control group (reference substance). The reference substance used was cyclophosphamide (monohydrate) from Sigma (ref: C0768) at a dose of 20 mg/kg administrated subcutaneously at a rate of 1 ml/kg, only administrated on the fifth day. During the four previous days, the animals were treated with the compound vehicle (methylcellulose).
On the fifth day, one hour after treatment, the animals were sensitised with sheep erythrocytes administrated intravenously (caudal vein), at a rate of 0.5 ml per animal. The sheep erythrocytes were suspended at a concentration of 2×10^9 cells/ml in a sodium chloride solution (isotonic).
On the ninth day, i.e. 4 days after sensitisation, the spleen was removed after euthanasia by exsanguination (section of the abdominal aorta) of the animals, which were previously anaesthetised with pentobarbital (Sanofi, 60 mg/kg).
Half of the spleen was broken up (ground), giving, after preparation, a suspension of splenocytes in PBS buffer (Dulbecco Gibco Ref: 3018199) containing 10^7 cells per millilitre.
The haemolytic plaque (PFC) reaction was induced by addition of 50 microlitres of the splenocyte suspension obtained for each animal in 200 microlitres of a suspension of PBS comprising complement and sheep erythrocytes.
The mixture, placed between the slide (holder) and cover slip creating an evaluation chamber (40 μl) delimited by paraffin, was incubated for one hour at 37° C.
At the end of the incubation, the slides were immediately placed flat at 4° C. The evaluation was performed as soon as possible. The number of haemolytic plaques (PFC) was determined by a standardised method of slide evaluation using an optical microscope. A haemolytic plaque (PFC) is a plaque where only one trapped splenocyte can be observed. The number of haemolytic plaques (PFC) is calculated for 10^6 spleen cells.

Compound	% inhibition (1st experiment, 30 mg/Kg oral, treatment for 5 days before sensitisation) [%]	% inhibition (1st experiment, 100 mg/Kg oral, treatment for 5 days before sensitisation)	% inhibition (1st experiment, 300 mg/Kg oral, treatment for 5 days before sensitisation)	% inhibition (2nd experiment, 0.01 mg/Kg oral, treatment for 7 days (5 days before sensitisation and 2 days after)) [%]	% inhibition (2nd experiment, 0.1 mg/Kg oral, treatment for 7 days (5 days before sensitisation and 2 days after))	% inhibition (2nd experiment, 1 mg/Kg oral, treatment for 7 days (5 days before sensitisation and 2 days after))	dose giving a statistically significant decrease in the number of haemolytic plaques (PFC) (oral, decrease in the humoral immune response) [mg/kg]	effect in relation to the treatment phase (treatment before sensitisation only vs. also after sensitisation)	% inhibition (1st experiment, cyclophosphamide 20 mg/Kg subcutaneously, only on the fifth day)	% inhibition (2nd experiment, cyclophosphamide 20 mg/Kg subcutaneously, only on the fifth day)
O=C(CC(Cc1ccccc1)C(=O)O)c1ccc(F)cc1 (single isomer, unassigned; (-)) [Molecule A, (−) 4-(4-Fluorophenyl)-4-oxo-2-phenylmethylbutanoic acid]	3	19** %	29** %	0	43 * %	42** %	≥ 0.1	stronger effect after the sensitisation phase		
O=P1(N(CCCl)CCCl)NCCCO1 (stereo not shown) [Cyclophosphamide, cyclophosphamide, reference compound]									85** %	54** %
